{"source": "patent US10501411B2", "about": "“Substituted benzamides” (Hoffmann-La Roche Inc., priority 2009, dated 2019)", "key": {"rat TAAR1": {"target": "rat TAAR1 (Rattus norvegicus (Rat), UniProt Q923Y9)", "sequence (Q923Y9 whole entry)": "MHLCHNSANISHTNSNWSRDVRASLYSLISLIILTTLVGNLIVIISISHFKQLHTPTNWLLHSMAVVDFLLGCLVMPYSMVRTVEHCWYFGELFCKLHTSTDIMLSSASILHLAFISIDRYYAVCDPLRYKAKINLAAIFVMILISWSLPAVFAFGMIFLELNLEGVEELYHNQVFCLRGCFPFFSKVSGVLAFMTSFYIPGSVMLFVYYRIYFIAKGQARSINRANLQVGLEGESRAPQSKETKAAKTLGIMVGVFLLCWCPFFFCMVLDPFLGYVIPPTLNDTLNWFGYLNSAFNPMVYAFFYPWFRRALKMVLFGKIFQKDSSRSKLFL", "experiment": "Radioligand binding assay on rat TAAR1", "details": "for Ki: rat TAAR1, HEK-293 membranes, second value of the mouse/rat pair", "description": "(§1) Construction of TAAR Expression Plasmids and Stably Transfected Cell Lines\n(§2) For the construction of expression plasmids the coding sequences of human, rat and mouse TAAR 1 were amplified from genomic DNA essentially as described by Lindemann et al.. The Expand High Fidelity PCR System (Roche Diagnostics) was used with 1.5 mM Mg^2+ and purified PCR products were cloned into pCR2.1-TOPO cloning vector (Invitrogen) following the instructions of the manufacturer. PCR products were subcloned into the pIRESneo2 vector (BD Clontech, Palo Alto, Calif.), and expression vectors were sequence verified before introduction in cell lines.\n(§3) HEK293 cells (ATCC #CRL-1573) were cultured essentially as described by Lindemann et al. (2005). For the generation of stably transfected cell lines HEK293 cells were transfected with the pIRESneo2 expression plasmids containing the TAAR coding sequences (described above) with Lipofectamine 2000 (Invitrogen) according to the instructions of the manufacturer, and 24 hrs post transfection the culture medium was supplemented with 1 mg/ml G418 (Sigma, Buchs, Switzerland). After a culture period of about 10 d clones were isolated, expanded and tested for responsiveness to trace amines (all compounds purchased from Sigma) with the cAMP Biotrak Enzyme immunoassay (EIA) System (Amersham) following the non-acetylation EIA procedure provided by the manufacturer.\nRadioligand Binding Assay on Rat TAAR1\n(§4) Membrane Preparation and Radioligand Binding.\nHEK-293 cells stably expressing rat TAAR1 were maintained at 37° C. and 5% CO2 in DMEM high glucose medium, containing fetal calf serum (10%, heat inactivated for 30 min at 56° C.), penicillin/streptomycin (1%), and 375 μg/ml geneticin (Gibco). Cells were released from culture flasks using trypsin/EDTA, harvested, washed twice with ice-cold PBS (without Ca^2+ and Mg^2+), pelleted at 1,000 rpm for 5 min at 4° C., frozen and stored at −80° C. Frozen pellets were suspended in 20 ml HEPES-NaOH (20 mM, pH 7.4) containing 10 mM EDTA and homogenized with a Polytron (PT 6000, Kinematica) at 14,000 rpm for 20 s. The homogenate was centrifuged at 48,000×g for 30 min at 4° C. Subsequently, the supernatant was removed and discarded, and the pellet resuspended in 20 ml HEPES-NaOH (20 mM, pH 7.4) containing 0.1 mM EDTA using the Polytron (20 s at 14,000 rpm). This procedure was repeated and the final pellet resuspended in HEPES-NaOH containing 0.1 mM EDTA and homogenized using the Polytron. […] With each new membrane batch the dissociation constant (Kd) was determined via a saturation curve. […] After addition of 45 μl of Microscint 40 (PerkinElmer) the Unifilter-96 plate was sealed and after 1 hr the ratioactivity counted using a TopCount Microplate Scintillation Counter (Packard Instrument Company)."}, "mouse TAAR1": {"target": "mouse TAAR1 (Mus musculus (Mouse), UniProt Q923Y8)", "sequence (Q923Y8 whole entry)": "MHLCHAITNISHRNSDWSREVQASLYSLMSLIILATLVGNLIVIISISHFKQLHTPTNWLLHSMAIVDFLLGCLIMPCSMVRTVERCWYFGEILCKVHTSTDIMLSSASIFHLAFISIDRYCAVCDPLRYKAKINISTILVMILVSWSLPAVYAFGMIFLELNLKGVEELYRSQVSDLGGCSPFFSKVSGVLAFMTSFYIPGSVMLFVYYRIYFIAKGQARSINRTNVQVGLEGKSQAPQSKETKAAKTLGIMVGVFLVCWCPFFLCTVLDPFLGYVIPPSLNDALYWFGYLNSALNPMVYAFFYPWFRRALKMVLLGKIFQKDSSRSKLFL", "experiment": "Radioligand binding assay on mouse TAAR1", "details": "for Ki: mouse TAAR1, HEK-293 membranes, first value of the mouse/rat pair", "description": "as §1, §2, §3\nRadioligand Binding Assay on Mouse TAAR1\nas §4\nHEK-293 cells stably expressing mouse TAAR1 were maintained at 37° C. and 5% CO2 in DMEM high glucose medium, containing fetal calf serum (10%, heat inactivated for 30 min at 56° C.), penicillin/streptomycin (1%), and 375 μg/ml geneticin (Gibco). […] With each new membrane batch the dissociation constant (Kd) was determined via a saturation curve. […] After addition of 45 μl of Microscint 40 (PerkinElmer) the Unifilter-96 plate was sealed and after 1 hr the ratioactivity counted using a TopCount Microplate Scintillation Counter (Packard Instrument Company)."}}}
{"compound": "CC1(c2ccc(NC(=O)c3ccc(Cl)cc3)cc2)CCN(Cc2ccccc2)C1", "note": "(racemic) [Example 40, (RS)—N-[4-(1-Benzyl-3-methyl-pyrrolidin-3-yl)-phenyl]-4-chloro-benzamide]", "values": [{"measurement": "Ki", "setting": "rat TAAR1", "result": 0.522, "unit": "µM"}]}
{"compound": "CCN(C[C@H]1COC(N)=N1)c1ccccc1", "note": "[^3[H]—(S)-4-[(ethyl-phenyl-amino)-methyl]-4,5-dihydro-oxazol-2-ylamine, reference compound]", "values": [{"measurement": "Kd", "setting": "mouse TAAR1; mouse TAAR1 membranes, saturation curve, read-out: dissociation constant (Kd) of the radioligand", "result": "~0.7", "unit": "nM"}, {"measurement": "Kd", "setting": "rat TAAR1; rat TAAR1 membranes, saturation curve, read-out: dissociation constant (Kd) of the radioligand", "result": "~2.3", "unit": "nM"}]}
{"compound": "O=C(Nc1cccc(OC2CCNC2)c1)c1ccc(Cl)cc1", "note": "(racemic) [Example 70, (RS)-4-Chloro-N-[3-(pyrrolidin-3-yloxy)-phenyl]-benzamide]", "values": [{"measurement": "Ki", "setting": "mouse TAAR1", "result": 0.0097, "unit": "µM"}, {"measurement": "Ki", "setting": "rat TAAR1", "result": 0.0935, "unit": "µM"}]}
{"compound": "CC(CC(F)(F)F)OC(=O)Nc1ccc(C2CCNC2)cc1", "note": "(racemic) [Example 131, (RS)-(4-Pyrrolidin-3-yl-phenyl)-carbamic acid (RS)-3,3,3-trifluoro-1-methyl-propyl ester]", "values": [{"measurement": "Ki", "setting": "mouse TAAR1", "result": 0.0208, "unit": "µM"}, {"measurement": "Ki", "setting": "rat TAAR1", "result": 0.0219, "unit": "µM"}]}
